Earlier results in patent US20070016968A1, “Treatment of pain through expression of opioid receptors” (priority 2003, published 2007).

Experiments:
mice of the CXBX strain = settings: CXBX strain mice (Rossi et al 1996)
μ-receptor = settings: in vivo studies (Ling et al)
μ1-site = settings: Ling et al 1984, 1985
cloned DOR-1 receptor = cloned DOR-1 receptor (Mus musculus, UniProt P32300); settings: mouse recombinant receptor
mice = settings: antinociception tests on mice
[1] = test system: MOR-1 knockout mice (exon-1); settings: disruption in exon-1 (Schuller et al 1999)

Chain of cloned DOR-1 receptor (P32300 whole entry): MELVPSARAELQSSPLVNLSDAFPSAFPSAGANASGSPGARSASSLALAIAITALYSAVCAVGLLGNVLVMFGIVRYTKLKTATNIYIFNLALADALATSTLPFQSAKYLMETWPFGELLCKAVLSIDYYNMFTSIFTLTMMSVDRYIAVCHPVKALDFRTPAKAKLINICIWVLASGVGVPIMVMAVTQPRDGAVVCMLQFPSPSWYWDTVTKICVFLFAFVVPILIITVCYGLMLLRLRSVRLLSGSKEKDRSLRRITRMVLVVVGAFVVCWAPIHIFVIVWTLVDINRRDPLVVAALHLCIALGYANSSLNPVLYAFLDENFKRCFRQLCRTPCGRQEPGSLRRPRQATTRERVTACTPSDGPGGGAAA

## CN1CC[C@]23c4c5ccc(O)c4O[C@H]2[C@@H](O[C@@H]2O[C@H](C(=O)O)[C@@H](O)[C@H](O)[C@H]2O)C=C[C@H]3[C@H]1C5 [morphine-6b-glucuronide]
Mice of the CXBX strain
  antinociceptive activity: potently antinociceptive

## C=CCN1CC[C@]23c4c5ccc(O)c4O[C@H]2/C(=N\N)CC[C@@]3(O)[C@H]1C5 [naloxazone]
μ-receptor
  block of morphine-induced antinociception: selectively blocked
  block of morphine-induced respiratory depression: did not block
  block of the induction of morphine dependence: did not block
μ1-site
  effect on binding of radioligands to the μ1-site: abolish the binding of radioligands

## Oc1ccc2c3c1O[C@H]1c4oc5ccccc5c4C[C@@]4(O)[C@@H](C2)N(CC2CC2)CC[C@]314 [naltriben]
Cloned DOR-1 receptor
  displacement of [3H]-diprenorphine binding, compared with BNTX: more highly displaced

## C=CCN1CC[C@]23c4c5ccc(O)c4O[C@H]2/C(=N/N=C2\CC[C@@]4(O)[C@H]6Cc7ccc(O)c8c7[C@@]4(CCN6CC=C)[C@H]2O8)CC[C@@]3(O)[C@H]1C5 [naloxonazine]
μ1-site
  effect on binding of radioligands to the μ1-site: abolish the binding of radioligands

## CN1CC[C@]23c4c5ccc(O)c4O[C@H]2[C@@H](O)C=C[C@H]3[C@H]1C5 [morphine]
mice
  cross tolerance with morphine-6b-glucuronide, heroin or 6-acetyl morphine: does not exhibit cross tolerance
Mice of the CXBX strain
  antinociceptive activity: poor antinociceptive agent

## CC(=O)O[C@H]1C=C[C@H]2[C@H]3Cc4ccc(O)c5c4[C@@]2(CCN3C)[C@H]1O5 [6-acetyl morphine]
Mice of the CXBX strain
  antinociceptive activity: potently antinociceptive

## CC(=O)Oc1ccc2c3c1O[C@H]1[C@@H](OC(C)=O)C=C[C@H]4[C@@H](C2)N(C)CC[C@@]341 [heroin]
[1]
  antinociception: still produce antinociception
Mice of the CXBX strain
  antinociceptive activity: potently antinociceptive
